# Like-named read-outs stand apart in the source and are kept apart here.
# What was measured:
# Endothelial lipase (EL) = Endothelial lipase (EL) (Homo sapiens (Human), UniProt Q9Y5X9); assay: EL assay: endothelial lipase activity with fluorescent substrate A10070 in DMPG vesicles; type: biochemical
# Protocol: (§1) Endothelial lipase (EL) and hepatic lipase (HL) activities were measured using a fluorescent substrate, A10070, (Invitrogen, CA) doped into an artificial vesicle containing DMPG (Avanti Polar Lipids) as the excipient. Vesicles were prepared by combining 571 μL of 29 mM DMPG in a 1:1 mixture of MeOH and CHCl3 with 2000 μL of 1 mM A10070 in a 1:1 mixture of MeOH and CHCl3. The mixture was dried under nitrogen in multiple vials then resuspended in 20 mL total volume of 50 mM HEPES pH 8.0 buffer containing 50 mM NaCl and 0.2 mM EDTA. The sample was allowed to sit at room temperature for 15 min and then was sonicated 3×4 mins on ice with a Branson Sonicator using duty cycle 1. This preparation provides vesicles with a mole fraction of 0.11 for the FRET substrate.
# (§2) The enzymatic assay was measured using 384-well white Optiplates. Each well contained 20 μL of assay buffer (50 mM HEPES pH 8.0, 50 mM NaCl and 1 mM CaCl2) and 0.25 μL of a DMSO solution containing a compound of interest. EL or HL (10 μL) was added and allowed to incubate with the compound for 30 min at 37° C. The source of EL was conditioned media obtained from HT-1080 cells that were transformed using RAGE technology (Athersys) to overexpress endogenous EL, and HL was partially purified from conditioned media obtained from COS cells overexpressing HL. The reaction was started by the addition of 10 μL of a 1:10 dilution of vesicles. The final total reaction volume was […]. The reaction rates were measured on a Gemini plate reader with an excitation wavelength of 490 nm and an emission wavelength of 530 nm. Readings were taken over a period of 60 minutes, and the slope between 300 and 900 secs of the readout was used to calculate the rate of the reaction.
# hepatic lipase (HL) = hepatic lipase (HL) (Homo sapiens (Human), UniProt P11150); assay: HL assay: hepatic lipase activity with fluorescent substrate A10070 in DMPG vesicles; type: biochemical
# Protocol: as §1, §2
# [1] = EL from conditioned media of HT-1080 cells, 30 min incubation with compound at 37° C., A10070/DMPG vesicles
# Sequence of Endothelial lipase (EL) (Q9Y5X9 21-500): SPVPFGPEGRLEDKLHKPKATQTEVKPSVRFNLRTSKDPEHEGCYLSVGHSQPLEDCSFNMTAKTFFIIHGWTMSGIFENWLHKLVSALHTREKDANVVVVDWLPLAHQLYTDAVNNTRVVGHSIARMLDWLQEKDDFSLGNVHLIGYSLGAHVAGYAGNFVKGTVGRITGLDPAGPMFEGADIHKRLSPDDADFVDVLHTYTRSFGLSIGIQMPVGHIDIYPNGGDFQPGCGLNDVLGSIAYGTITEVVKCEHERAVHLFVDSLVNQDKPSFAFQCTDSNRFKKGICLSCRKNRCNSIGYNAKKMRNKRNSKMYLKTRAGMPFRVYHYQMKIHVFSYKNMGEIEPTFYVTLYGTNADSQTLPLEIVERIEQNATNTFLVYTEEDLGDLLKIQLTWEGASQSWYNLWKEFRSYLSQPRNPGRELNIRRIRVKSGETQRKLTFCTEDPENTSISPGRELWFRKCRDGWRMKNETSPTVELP
# Sequence of hepatic lipase (HL) (P11150 23-499, species assumed): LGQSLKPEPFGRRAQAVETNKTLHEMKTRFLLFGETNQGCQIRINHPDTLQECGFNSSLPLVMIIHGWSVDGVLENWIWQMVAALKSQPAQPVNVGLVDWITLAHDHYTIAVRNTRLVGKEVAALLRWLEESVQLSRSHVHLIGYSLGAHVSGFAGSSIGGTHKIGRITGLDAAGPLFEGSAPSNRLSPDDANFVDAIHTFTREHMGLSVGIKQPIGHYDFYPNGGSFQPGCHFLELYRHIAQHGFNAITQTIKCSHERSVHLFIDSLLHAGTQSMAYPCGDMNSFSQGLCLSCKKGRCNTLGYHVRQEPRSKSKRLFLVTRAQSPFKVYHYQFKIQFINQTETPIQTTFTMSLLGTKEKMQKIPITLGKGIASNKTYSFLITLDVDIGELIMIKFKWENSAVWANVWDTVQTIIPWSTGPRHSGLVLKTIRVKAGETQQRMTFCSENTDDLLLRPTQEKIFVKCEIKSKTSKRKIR
Compound,IC50 (Endothelial lipase (EL)) [nM],IC50 (hepatic lipase (HL)) [nM],IC50 (Endothelial lipase (EL); [1]) [nM],"IC50 (hepatic lipase (HL); HL partially purified from conditioned media of COS cells, 30 min incubation with compound at 37° C., A10070/DMPG vesicles) [nM]"
"2-[6-(2-fluorophenyl)-1,3- benzothiazol-2-yl]-N-(2- sulfamoylethyl)-2-(3,3,3- trifluoropropanesulfonyl)a- cetamide [Example B307]",3,1.5,,
"2-[6-(3-fluoro-2-hydroxy- pyridin-4-yl)-1,3- benzothiazol-2-yl]-N-(2- sulfamoylethyl)-2-{[4- (trifluoromethoxy)phen- yl]methanesulfonyl}a- cetamide [Example B376]",7.1,4700,,
"NS(=O)(=O)CCNC(=O)C(c1nc2c(F)cc(-c3ccccc3)cc2s1)S(=O)(=O)CCC(F)(F)F (stereo not drawn) [Example B26, 2-(4-Fluoro-6-phenylbenzo[d]thiazol-2-yl)-N-(2-sulfamoylethyl)-2-((3,3,3-trifluoropropyl)sulfonyl)acetamide]",,,< 10,
"NC(=O)c1ccc(-c2cc3sc(C(C(=O)N[C@@H]4CCNC4=O)S(=O)(=O)Cc4ccccc4)nc3cc2F)cc1 (stereo partly drawn) [Example B27, 4-(2-(1-(benzylsulfonyl)-2-oxo-2-(((3R)-2-oxo-3-pyrrolidinyl)amino)ethyl)-5-fluoro-1,3-benzothiazol-6-yl)benzamide]",,,93,
"Cc1nnc(CNC(=O)C(c2nc3cc(C)c(-c4ccccc4)cc3s2)S(=O)(=O)Cc2ccccc2)o1 (stereo not drawn) [Example B28, 2-(benzylsulfonyl)-N-((5-methyl-1,3,4-oxadiazol-2-yl)methyl)-2-(5-methyl-6-phenyl-1,3-benzothiazol-2-yl)acetamide]",,,12,
"CS(=O)(=O)C(C(=O)NCCS(N)(=O)=O)c1nc2ccc(-c3ccc(OCCN4CCCCC4)cc3)cc2s1 (stereo not drawn) [Example B42, 2-(methylsulfonyl)-2-(6-(4-(2-(1-piperidinyl)ethoxy)phen-yl)-1,3-benzothiazol-2-yl)-N-(2-sulfamoylethyl)a-cetamide]",< 10,10,,
"CC1CCN(C(=O)c2ccc(-c3ccc4nc(C(C(=O)NCCS(N)(=O)=O)S(C)(=O)=O)sc4c3)cc2)CC1 (stereo not drawn) [Example B43, 2-(6-{4-[(4-methyl-1-piperidinyl)carbonyl]phen-yl}-1,3-benzothiazol-2-yl)-2-(methylsulfonyl)-N-(2-sulfamoylethyl)a-cetamide]",< 10,< 10,,
"CC(=O)Nc1ccc(-c2ccc3nc(C(C(=O)NCCS(N)(=O)=O)S(=O)(=O)Cc4ccccc4)sc3c2)cc1 (stereo not drawn) [Example B44, 2-(6-(4-acetamidophenyl)-1,3-benzothiazol-2-yl)-2-(benzylsulfonyl)-N-(2-sulfamoylethyl)acetamide]",< 10,148,,
"NS(=O)(=O)CCNC(=O)C(c1nc2ccc(-c3ccc(C(=O)NCC(F)(F)F)cc3)cc2s1)S(=O)(=O)CCC(F)(F)F (stereo not drawn) [Example B45, 4-(2-(2-oxo-2-((2-sulfamoylethyl)amino)-1-((3,3,3-trifluoropropyl)sul-fonyl)ethyl)-1,3-benzothiazol-6-yl)-N-(2,2,2-trifluoroethyl)ben-zamide]",< 10,38,,
"NS(=O)(=O)CCNC(=O)C(c1nc2ccc(-c3ccc(C(=O)NCCO)cc3)cc2s1)S(=O)(=O)CCC(F)(F)F (stereo not drawn) [Example B46, N-(2-hydroxyethyl)-4-(2-(2-oxo-2-((2-sulfamoylethyl)amino)-1-((3,3,3-trifluoropropyl)sul-fonyl)ethyl)-1,3-benzothiazol-6-yl)ben-zamide]",< 10,520,,
"C=CCC(C(=O)NCCS(N)(=O)=O)c1nc2ccc(-c3ccccc3)cc2s1 (stereo not drawn) [Reference 1, 2-(6-Phenyl-1,3-benzothiazol-2-yl)-N-(2-sulfamoylethyl)-4-pentenamide, reference compound]",9400,,,
"CC(C)c1cc(CNC(=O)C(C)(C)c2nc3ccc(-c4ccccc4)cc3s2)on1 [Reference 2, N-((3-isopropylisoxazol-5-yl)methyl)-2-methyl-2-(6-phenylbenzo[d]thiazol-2-yl)propanamide, reference compound]",,,> 62000,

# The next lines start with the values.
IC50 (Endothelial lipase (EL)) [nM],IC50 (hepatic lipase (HL)) [nM],IC50 (Endothelial lipase (EL); [1]) [nM],"IC50 (hepatic lipase (HL); HL partially purified from conditioned media of COS cells, 30 min incubation with compound at 37° C., A10070/DMPG vesicles) [nM]",Compound
,,35,,"CS(=O)(=O)C(C(=O)NCCS(=O)(=O)Nc1ccccc1)c1nc2ccc(-c3ccnc(F)c3)cc2s1 (stereo not drawn) [Example B24, 2-(6-(2-fluoro-4-pyridinyl)-1,3-benzothiazol-2-yl)-2-(methylsulfonyl)-N-(2-(phenylsulfamoyl)ethyl)acetamide]"
,,277,,"CS(=O)(=O)C(C(=O)NCCS(=O)(=O)NCC(F)(F)F)c1nc2ccc(-c3ccnc(F)c3)cc2s1 (stereo not drawn) [Example B30, 2-(6-(2-Fluoro-4-pyridinyl)-1,3-benzothiazol-2-yl)-2-(methylsulfonyl)-N-(2-((2,2,2-trifluoroethyl)sulfamoyl)ethyl)acetamide]"
,,< 10,257,"CC(C)(C)NC(=O)c1ccc(-c2ccc3nc(C(C(=O)NCCS(N)(=O)=O)S(C)(=O)=O)sc3c2)cc1 (stereo not drawn) [Example B31, N-tert-Butyl-4-(2-(1-(methylsulfonyl)-2-oxo-2-((2-sulfamoylethyl)amino)ethyl)-1,3-benzothiazol-6-yl)benzamide]"
< 10,923,,,"CS(=O)(=O)C(C(=O)NCCS(N)(=O)=O)c1nc2ccc(-c3ccc(C(=O)N4CCOCC4)c(Cl)c3)cc2s1 (stereo not drawn) [Example B32, 2-(6-(3-chloro-4-(4-morpholinylcarbonyl)phenyl)-1,3-benzothiazol-2-yl)-2-(methylsulfonyl)-N-(2-sulfamoylethyl)acetamide]"
14,22,,,"Cc1cc(-c2ccc3nc(C(C(=O)NCCS(N)(=O)=O)S(C)(=O)=O)sc3c2)cnc1F (stereo not drawn) [Example B33, 2-(6-(6-fluoro-5-methyl-3-pyridinyl)-1,3-benzothiazol-2-yl)-2-(methylsulfonyl)-N-(2-sulfamoylethyl)acetamide]"
< 10,313,,,"CS(=O)(=O)C(C(=O)NCCS(N)(=O)=O)c1nc2ccc(-c3cnn(CCN4CCOCC4)c3)cc2s1 (stereo not drawn) [Example B34, 2-(methylsulfonyl)-2-(6-(1-(2-(4-morpholinyl)ethyl)-1H-pyrazol-4-yl)-1,3-benzothiazol-2-yl)-N-(2-sulfamoylethyl)acetamide]"
< 10,43,,,"COCCNC(=O)c1ccc(-c2ccc3nc(C(C(=O)NCCS(N)(=O)=O)S(C)(=O)=O)sc3c2)cc1 (stereo not drawn) [Example B35, N-(2-methoxyethyl)-4-(2-{1-(methylsulfonyl)-2-oxo-2-[(2-sulfamoylethyl)a-mino]ethyl}-1,3-benzothiazol-6-yl)ben-zamide]"
< 10,< 10,,,"CS(=O)(=O)C(C(=O)NCCS(N)(=O)=O)c1nc2ccc(-c3ccc(F)cc3)cc2s1 (stereo not drawn) [Example B36, 2-(6-(4-fluorophenyl)-1,3-benzothiazol-2-yl)-2-(methylsulfonyl)-N-(2-sulfamoylethyl)acetamide]"
< 10,< 10,,,"CS(=O)(=O)C(C(=O)NCCS(N)(=O)=O)c1nc2ccc(-c3cccc(F)c3)cc2s1 (stereo not drawn) [Example B37, 2-(6-(3-fluorophenyl)-1,3-benzothiazol-2-yl)-2-(methylsulfonyl)-N-(2-sulfamoylethyl)acetamide]"
< 10,< 10,,,"CS(=O)(=O)C(C(=O)NCCS(N)(=O)=O)c1nc2ccc(-c3ccc4c(c3)OCO4)cc2s1 (stereo not drawn) [Example B38, 2-(6-(1,3-benzodioxol-5-yl)-1,3-benzothiazol-2-yl)-2-(methylsulfonyl)-N-(2-sulfamoylethyl)acetamide]"
< 10,< 10,,,"CS(=O)(=O)C(C(=O)NCCS(N)(=O)=O)c1nc2ccc(-c3ccc(OC(F)(F)F)cc3)cc2s1 (stereo not drawn) [Example B39, 2-(methylsulfonyl)-N-(2-sulfamoylethyl)-2-(6-(4-(trifluoromethoxy)phenyl)-1,3-benzothiazol-2-yl)acetamide]"
< 10,19,,,"CS(=O)(=O)C(C(=O)NCCS(N)(=O)=O)c1nc2ccc(-c3ccc(C(=O)NCCO)cc3)cc2s1 (stereo not drawn) [Example B40, N-(2-hydroxyethyl)-4-(2-(1-(methylsulfonyl)-2-oxo-2-((2-sulfamoylethyl)a-mino)ethyl)-1,3-benzothiazol-6-yl)ben-zamide]"
< 10,17,,,"CS(=O)(=O)C(C(=O)NCCS(N)(=O)=O)c1nc2ccc(-c3ccc(C(=O)NCC(F)(F)F)cc3)cc2s1 (stereo not drawn) [Example B41, 4-(2-(1-(methylsulfonyl)-2-oxo-2-((2-sulfamoylethyl)a-mino)ethyl)-1,3-benzothiazol-6-yl)-N-(2,2,2-trifluoroethyl)ben-zamide]"
< 10,35,,,"CS(=O)(=O)C(C(=O)NCCS(N)(=O)=O)c1nc2ccc(-c3ccc(CCO)cc3)cc2s1 (stereo not drawn) [Example B47, 2-(6-(4-(2-hydroxyethyl)phenyl)-1,3-benzothiazol-2-yl)-2-(methylsulfonyl)-N-(2-sulfamoylethyl)acetamide]"
